US20070004724A1, “(+)-(2S,3s)-2-(3-chlorophenyl)-3,5,5-trimethyl-2-morpholinor for treating anxiety” (priority 2003, published 2007)
Structures can show the parent of a compound that is named as a salt.

Tests used:
Male Sprague Dawley rats [1] = assay: Social interaction test in rats, chronic study; format: in vivo, rat; conditions: for Number of line crossings: motor activity; for Number of line crossings / Time spent in active social interaction: average±s.e.
Protocol: (§1) Social Interaction Test in Rats [Animal Models for Predicting Clinical Efficacy of Anxiolytic Drugs: Social Behaviour. Neuropsychobiology. 13 (1-2) 55-62, 1985]
(§2) Male Sprague Dawley rats (350-400 g at day of test, Charles River, Italy) were individually housed for five days before the test session. The 15 minutes social interaction test was performed between 9:00 to 14:00. Pairs of rats, weight and treatment matched, were placed in the test arena under high light condition. Active social interaction (sniffing, following, grooming, biting, boxing, crawling over and under) and motor activity, in terms of line crossing were scored by an observer blind to the drug treatment. The animals were treated orally with vehicle (2 ml/kg) or with the hydrochloride salt of the compound of formula (I) at 3, 10 and 30 mg/kg, 45 minutes prior to the test (acute study), or for 20 days twice a day and with a final treatment given on day 21, the last treatment given 45 minutes before the test (chronic study). An additional group of rats (positive control group) received a single oral dose of chlordiazepoxide (CDP) 4 mg/kg 1 hour before testing.
The results of the chronic study are given below in Table 3 (values given as average±s.e.), with the data for social interaction also illustrated in FIG. 1.

[2] = molecular target: T1, serotonin uptake, synaptosomes from rat hypothalamus (Rattus norvegicus, UniProt P31652); assay: In vitro synaptosomal uptake of [3H]-serotonin; format: biochemical
T1 construct: Synaptosomes for use in obtaining in vitro uptake data were prepared from hypothalamus or striatum; from tissue; host or cells: rat hypothalamus synaptosomes
From the text: Similarities and differences. Molecular Pharmacology, 21: p.

[3] = molecular target: T2, dopamine (DA) uptake, synaptosomes from rat caudoputamen (Rattus norvegicus, UniProt P23977); assay: In vitro synaptosomal uptake of [3H]-dopamine; format: biochemical; conditions: [3H]-dopamine uptake, mean ± SEM of 3 experiments
T2 construct: Synaptosomes for use in obtaining in vitro uptake data were prepared from hypothalamus or striatum; from tissue; host or cells: rat caudoputamen (striatum) synaptosomes
Protocol: In vitro uptake was determined, as reported previously, using synaptosomes prepared from rat caudoputamen (for dopamine uptake) and hypothalamus (for NA and serotonin uptake) using [^3H]-dopamine, [^3H]-NA and [^3H]-serotonin as transport substrates, respectively. See Eckhardt, S. B., R. A. Maxwell, and R. M. Ferris, A Structure-Activity Study of the Transport Sites for the Hypothalamic and Striatal Catecholamine Uptake Systems. Similarities and differences. Molecular Pharmacology, 21: p. 374-9, 1982.
Synaptosomes for use in obtaining in vitro uptake data were prepared from hypothalamus or striatum by gently homogenizing the tissue in a 0.3 M sucrose/25 mM Tris pH 7.4 buffer containing iproniazid phosphate to inhibit monoamine oxidase. The homogenate was centrifuged at 1100×g at 4° C. for 10 min and the supernatant was used for uptake studies. […] Under these conditions uptake was linear with respect to both for substrate and tissue (with <5% total substrate transported). Non-specific uptake was defined as uptake at 0° C. [^3H]-substrate, which had been transported into synaptosomes, was separated from free [^3H]-substrate by filtration over GF/B filters and washing with cold Krebs-Henseleit buffer. The filters were counted for tritum in a liquid scintillation spectrometer.

Male Sprague Dawley rats [4] = assay: Social interaction test in rats, acute study; format: in vivo; conditions: acute rat social interaction study
Protocol: as §1, §2
The results for social interaction in the acute study are illustrated in FIG. 2.

CD-1 mice = assay: Light & dark box test in mice; format: in vivo; conditions: 3 mg/kg oral, 30 minutes before test
From the text: Light & Dark Box Test in Mice [Costall B. Jones B J. Kelly […]. and Tomkins D M. Exploration of Mice in a Black and White Test Box: Validation as a Model of Anxiety. Pharmacology, Biochemistry & Behavior. 32 (3):777-85, 1989] The light-dark box test consists of a Perspex box which is divided into two compartments, two-thirds of which is painted white and the remaining third is painted black. Mice are able to move freely between the two compartments using a small gap in the wall separating the two compartments. The floor is marked with lines, which provided an index of motor activity of the animals (number of line crossings). A white light (60 W) is placed over the white compartment of the box to provide a brightly-lit area which the animals find aversive. Mice tend to escape from this area preferring to remain in the black area, returning only occasionally to explore the white area. […] CD-1 mice (25-30 g, Charles River, Italy) were placed individually into the centre of the white side of the black/white test box for the 5 min test period and the behaviour of the mice was recorded by remote video recording. Behaviour of the mice was assessed subsequently from the tape recordings by an observer who was unaware of the animals' treatment. Different parameters were assessed to estimate both the anxiolytic and the sedative effects of the compound tested. […]

[5] = test system: cell-lines expressing human monoamine transporters; assay: Compound-induced cytotoxicity in the transporter cell-lines; format: cell-based; conditions: at any of the concentrations causing reuptake inhibition
[6] = chronic study, at 3 and 10 mg/kg oral

T1 sequence (P31652 whole entry): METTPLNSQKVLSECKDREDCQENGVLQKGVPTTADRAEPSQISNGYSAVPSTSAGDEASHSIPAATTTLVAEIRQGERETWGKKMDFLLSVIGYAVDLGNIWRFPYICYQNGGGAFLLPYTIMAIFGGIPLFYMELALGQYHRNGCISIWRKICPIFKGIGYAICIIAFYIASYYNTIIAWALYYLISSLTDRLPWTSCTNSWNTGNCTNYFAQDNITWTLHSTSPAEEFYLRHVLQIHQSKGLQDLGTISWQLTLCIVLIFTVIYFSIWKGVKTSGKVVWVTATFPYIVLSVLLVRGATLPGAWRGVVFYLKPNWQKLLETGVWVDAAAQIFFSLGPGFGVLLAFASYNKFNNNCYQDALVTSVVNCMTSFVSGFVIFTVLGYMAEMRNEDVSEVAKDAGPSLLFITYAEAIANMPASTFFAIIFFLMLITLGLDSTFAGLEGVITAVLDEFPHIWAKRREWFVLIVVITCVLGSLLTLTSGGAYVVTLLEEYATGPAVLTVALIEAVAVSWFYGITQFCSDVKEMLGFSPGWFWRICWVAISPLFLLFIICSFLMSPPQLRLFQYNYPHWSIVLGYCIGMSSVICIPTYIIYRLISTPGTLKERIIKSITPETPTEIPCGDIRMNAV
T2 sequence (P23977 whole entry): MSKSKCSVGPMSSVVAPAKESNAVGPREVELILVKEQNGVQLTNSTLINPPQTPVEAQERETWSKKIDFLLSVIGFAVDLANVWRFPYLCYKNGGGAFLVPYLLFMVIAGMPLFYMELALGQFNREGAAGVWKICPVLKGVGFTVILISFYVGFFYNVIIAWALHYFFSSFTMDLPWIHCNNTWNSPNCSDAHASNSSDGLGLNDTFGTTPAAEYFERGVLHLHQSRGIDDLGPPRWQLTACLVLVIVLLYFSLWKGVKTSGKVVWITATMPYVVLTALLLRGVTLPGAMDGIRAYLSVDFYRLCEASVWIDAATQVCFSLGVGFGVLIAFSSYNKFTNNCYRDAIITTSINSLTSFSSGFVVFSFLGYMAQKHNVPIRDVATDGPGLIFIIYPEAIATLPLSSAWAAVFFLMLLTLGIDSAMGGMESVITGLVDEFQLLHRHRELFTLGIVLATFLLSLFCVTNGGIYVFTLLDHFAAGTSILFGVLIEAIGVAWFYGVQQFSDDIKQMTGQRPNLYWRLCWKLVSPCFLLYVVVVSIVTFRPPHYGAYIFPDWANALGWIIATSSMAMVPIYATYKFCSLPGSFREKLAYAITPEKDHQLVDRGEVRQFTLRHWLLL

## CNC1=Nc2ccc(Cl)cc2C(c2ccccc2)=[N+]([O-])C1 [CDP, chlordiazepoxide, reference compound]
Male Sprague Dawley rats [1]; positive control, single oral dose 4 mg/kg, n=14
  Number of line crossings: 560.1 ± 29.6
Male Sprague Dawley rats [1]; positive control, single oral dose 4 mg/kg
  Time spent in active social interaction, % (change relative to vehicle): 53.2%
Male Sprague Dawley rats [1]; positive control, single oral dose 4 mg/kg 1 hour before testing, n=14
  Time spent in active social interaction: 124.4 ± 10.7 s

## C[C@@H]1NC(C)(C)CO[C@@]1(O)c1cccc(Cl)c1 [Formula (I), (+)-(2S,3S)-2-(3-chlorophenyl)-3,5,5-trimethyl-2-morpholinol]
[2]
  IC50: > 30 µM
[2]; at 30 μM
  inhibition of serotonin uptake: no inhibition
[3]
  IC50: 9.3 ± 0.41 µM
Male Sprague Dawley rats [4]
  anxiogenic activity: lack of anxiogenic activity

## C[C@@H]1NC(C)(C)CO[C@@]1(O)c1cccc(Cl)c1 [Formula (I). HCl, (+)-(2S,3S)-2-(3-chlorophenyl)-3,5,5-trimethyl-2-morpholinol hydrochloride]
CD-1 mice
  anxiolytic-like effect in light & dark box test: able to induce an anxiolytic-like effect
Male Sprague Dawley rats [1]; chronic study, 3 mg/kg oral twice a day 20 days + day 21, 45 min before test, n=14
  Time spent in active social interaction: 114.0 ± 11.5 s
Male Sprague Dawley rats [1]; chronic study, 10 mg/kg oral twice a day 20 days + day 21, 45 min before test, n=10
  Time spent in active social interaction: 126.4 ± 13.8 s
Male Sprague Dawley rats [1]; chronic study, 30 mg/kg oral twice a day 20 days + day 21, 45 min before test, n=14
  Time spent in active social interaction: 97.6 ± 8.7 s
Male Sprague Dawley rats [1]; chronic study, at 30 mg/kg oral
  effect on social interaction: lack of effect on social interaction
Male Sprague Dawley rats [1]; chronic study, at 30 mg/kg oral, compared to vehicle
  effect on locomotor activity: significant reduction in locomotor activity
Male Sprague Dawley rats [1]; [6]
  anxiolytic-like effect in social interaction test: able to induce an anxiolytic-like effect
  effect on locomotor activity: without any significant effects on locomotor activity
Male Sprague Dawley rats [1]; chronic study, 3 mg/kg oral, n=14
  Number of line crossings: 587.0 ± 29.1
Male Sprague Dawley rats [1]; chronic study, 10 mg/kg oral, n=10
  Number of line crossings: 571.0 ± 44.1
Male Sprague Dawley rats [1]; chronic study, 30 mg/kg oral, n=14
  Number of line crossings: 476.2 ± 42.6
[5]
  cytotoxicity: No cytotoxicity was observed
